From PubChem BioAssay AID977613 (Broad Institute, 2014)
Activity calls are given as the source filed them. How the calls were made is not given here.

These molecules were tested on Broad 7084-01 inhibitor HTS, set 2 (assay: single-concentration hits, screen 7084 set 2 (AID 977613);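 further: host cells are infected with parasite promastigotes that become internalized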).
With `CC(C)CC#Cc1ccc([C@H]2[C@@H](CO)N3C(=O)CN(C(=O)c4ccccn4)C[C@@H]23)cc1` the active concentration was > 10 µM (inactive).
With `O=C(C[C@@H]1CC[C@@H]2[C@H](COC[C@@H](O)CN2C(=O)c2ccccc2F)O1)NCc1ccccc1` the active concentration was > 10 µM (inactive).
In the case of `COc1cccc(C#Cc2ccc3c(c2)[C@@H]2[C@@H](CCN2C(=O)CC2CC2)[C@@H](CO)N3)c1`, the active concentration is reported as > 10 µM (inactive).
In the case of `O=C(c1cccnc1)N1C[C@H]2[C@@H](c3ccccc31)[C@H](CO)N2Cc1ccc2c(c1)OCO2`, the active concentration is reported as > 10 µM (inactive).
`O=C(Nc1ccc(F)cc1)N1CC(=O)N2[C@H](CO)[C@H](c3ccc(C#Cc4cccnc4)cc3)[C@@H]2C1` was tested, and the active concentration was > 10 µM (inactive).
In the case of `Cc1noc(C)c1NC(=O)N1C[C@@H](O)COC[C@@H]2O[C@H](CC(=O)NCC3CCCCC3)CC[C@H]21`, the active concentration is reported as > 10 µM (inactive).
In the case of `CC(C)(O)C#Cc1ccc([C@H]2[C@H](CO)N3CCCCN(S(C)(=O)=O)C[C@@H]23)cc1`, the active concentration is reported as > 10 µM (inactive).
In the case of `COc1cc(CN2CC3(CN(C(=O)CN4CCOCC4)C3)c3c(n(C)c4cc(OC)ccc34)[C@@H]2CO)cc(OC)c1`, the active concentration is reported as > 10 µM (inactive).
In the case of `Cn1cnc(S(=O)(=O)N2C[C@@H](O)COC[C@H]3O[C@H](CC(=O)NC4CCCC4)CC[C@@H]32)c1`, the active concentration is reported as > 10 µM (inactive).
In the case of `COc1ccc2c3c(n(C)c2c1)[C@H](CO)N(C(=O)Nc1ccccc1F)CC31CN(C(=O)c2ccccc2F)C1`, the active concentration is reported as > 10 µM (inactive).
With `O=C(C[C@H]1CC[C@@H]2[C@H](COC[C@@H](O)CN2Cc2cc(F)ccc2F)O1)NCc1ccc(F)cc1` the active concentration was > 10 µM (inactive).
For `O=C(CC1CC1)N1CC(=O)N2[C@@H](CO)[C@H](c3ccc(C#Cc4cccc(F)c4)cc3)[C@@H]2C1`, the active concentration was > 10 µM (inactive).
`O=C(C[C@H]1CC[C@H]2[C@@H](COC[C@@H](O)CN2C(=O)c2ccc3c(c2)OCO3)O1)NC1CCC1` was tested, and the active concentration was > 10 µM (inactive).
`CCC(=O)N1CC(=O)N2[C@H](C1)[C@@H](c1ccc(-c3ccc(C#N)cc3)cc1)[C@@H]2CO` was tested, and the active concentration was > 10 µM (inactive).
With `O=C(C[C@H]1CC[C@H]2[C@@H](COC[C@@H](O)CN2C(=O)c2ccccc2F)O1)NCc1ccccc1` the active concentration was > 10 µM (inactive).
In the case of `O=C1CNC[C@@H]2[C@H](c3ccc(-c4ccccc4F)cc3)[C@@H](CO)N12`, the active concentration is reported as > 10 µM (inactive).
In the case of `Cn1cnc(S(=O)(=O)N2C[C@H](O)COC[C@H]3O[C@@H](CC(=O)NC4CCCC4)CC[C@@H]32)c1`, the active concentration is reported as > 10 µM (inactive).
In the case of `CCNC(=O)C[C@H]1CC[C@@H]2[C@H](COC[C@@H](O)CN2C(=O)C2CC2)O1`, the active concentration is reported as > 10 µM (inactive).
`O=C1CNC[C@@H]2[C@@H](c3ccc(-c4ccccc4F)cc3)[C@H](CO)N12` was tested, and the active concentration was > 10 µM (inactive).
For `CCCN1[C@H](C(=O)NCCCN2CCOCC2)[C@@H](CO)[C@@H]2Cn3c(ccc(-c4ccncc4)c3=O)[C@@H]21`, the active concentration was > 10 µM (inactive).
`COc1ccc2c3c([nH]c2c1)[C@H](CO)N(C)CC31CCN(S(=O)(=O)c2ccc(C)cc2)CC1` was tested, and the active concentration was > 10 µM (inactive).
For `O=S(=O)(c1ccccc1)N1CCCCN2[C@@H](CO)[C@H](c3ccc(C#CC4CCCC4)cc3)[C@@H]2C1`, the active concentration was > 10 µM (inactive).
`O=C(C[C@@H]1CC[C@H]2[C@@H](COC[C@H](O)CN2CC2CCOCC2)O1)NCC1CCCCC1` was tested, and the active concentration was > 10 µM (inactive).
For `O=C(CC(F)(F)F)N1C[C@H]2[C@@H](c3ccccc31)[C@@H](CO)N2CC1CCOCC1`, the active concentration was > 10 µM (inactive).
In the case of `O=C(C1CCC1)N1[C@H](CO)[C@@H](c2ccccc2)C12CN(CCC(F)(F)F)C2`, the active concentration is reported as > 10 µM (inactive).
With `O=C(Cc1ccncc1)N1CC(=O)N2[C@H](CO)[C@H](c3ccc(Br)cc3)[C@@H]2C1` the active concentration was > 10 µM (inactive).
With `CN1c2ccc(-c3ccccc3F)cc2[C@@H]2[C@@H](CCN2C(=O)Cc2ccccn2)[C@@H]1CO` the active concentration was > 10 µM (inactive).
For `COc1cccc(-c2ccc([C@H]3[C@@H](CO)N4C(=O)CN(C(=O)c5cccnc5)C[C@@H]34)cc2)c1`, the active concentration was > 10 µM (inactive).
For `CCS(=O)(=O)Nc1ccc2c(c1)C(=O)N(C)[C@H]1CC[C@H](CC(=O)N[C@@H]3CCN(Cc4ccccc4)C3)O[C@@H]1CO2`, the active concentration was > 10 µM (inactive).
With `COc1ccc2c3c([nH]c2c1)[C@@H](CO)N(C(=O)Nc1ccc(F)cc1)CC31CN(C(=O)c2ccccc2F)C1` the active concentration was > 10 µM (inactive).
With `CCCC(=O)N1CC2(C1)CN(C(=O)c1ccc(F)cc1)[C@H](CO)c1[nH]c3cc(OC)ccc3c12` the active concentration was > 10 µM (inactive).
With `COc1cccc(CN2[C@H](CO)[C@@H](c3ccccc3)C23CN(Cc2ccccc2OC)C3)c1` the active concentration was > 10 µM (inactive).
With `CCCNC(=O)N1CC2(C1)[C@@H](c1ccccc1)[C@@H](CO)N2Cc1ccccn1` the active concentration was > 10 µM (inactive).
`N#C[C@@H]1[C@@H](c2ccccc2-c2ccccc2F)[C@@H](CO)N1C(=O)Cc1ccccc1` was tested, and the active concentration was > 10 µM (inactive).
For `C[C@@H](NC(=O)[C@@H]1[C@@H](CO)[C@@H]2Cn3c(cccc3=O)[C@H]1N2CCC(F)(F)F)c1ccccc1`, the active concentration was > 10 µM (inactive).
With `O=C(C[C@H]1CC[C@@H]2[C@H](COC[C@H](O)CN2Cc2cccc(F)c2)O1)NCc1cccc(F)c1` the active concentration was > 10 µM (inactive).
With `CN1C(=O)c2cc(NS(C)(=O)=O)ccc2OC[C@@H]2O[C@H](CC(=O)NC3CCCCC3)CC[C@H]21` the active concentration was > 10 µM (inactive).
With `CN1C(=O)c2cc(NC(=O)c3cccc(F)c3)ccc2OC[C@@H]2O[C@@H](CC(=O)NCC3CCCCC3)CC[C@H]21` the active concentration was > 10 µM (inactive).
For `CCCNC(=O)N1CC(=O)N2[C@H](C1)[C@H](c1ccc(C#CCC3CCCC3)cc1)[C@@H]2CO`, the active concentration was > 10 µM (inactive).
`O=C(C[C@H]1CC[C@H]2[C@@H](COC[C@@H](O)CN2C(=O)c2ccccc2)O1)Nc1ccc(-c2ccccc2)cc1` was tested, and the active concentration was > 10 µM (inactive).
In the case of `CCS(=O)(=O)Nc1ccc2c(c1)C(=O)N(C)[C@@H]1CC[C@H](CC(=O)NCCOC)O[C@H]1CO2`, the active concentration is reported as > 10 µM (inactive).
With `COc1ccccc1NC(=O)N1CC(=O)N2[C@H](CO)[C@H](c3ccc(-c4cccc(C)c4)cc3)[C@@H]2C1` the active concentration was > 10 µM (inactive).
`O=C1CNC[C@H]2[C@@H](c3ccc(-c4ccccc4F)cc3)[C@H](CO)N12` was tested, and the active concentration was > 10 µM (inactive).
In the case of `CCC(=O)N1CC2(C1)[C@@H](c1ccc(-c3cccc(C)c3)cc1)[C@H](CO)N2S(C)(=O)=O`, the active concentration is reported as > 10 µM (inactive).
`CS(=O)(=O)N1C[C@H](O)COC[C@@H]2O[C@@H](CC(=O)NCc3ccc(-c4ccccc4)cc3)CC[C@H]21` was tested, and the active concentration was > 10 µM (inactive).
In the case of `COc1ccccc1CN1[C@@H](CO)[C@@H]2c3ccccc3N(C(=O)c3cccnc3)C[C@@H]21`, the active concentration is reported as > 10 µM (inactive).
For `O=C1CNC[C@@H]2[C@@H](c3ccc(-c4ccccc4F)cc3)[C@@H](CO)N12`, the active concentration was > 10 µM (inactive).
For `Cc1ccc(NC(=O)C[C@H]2CC[C@H]3[C@@H](COc4ccc(NC(=O)C5CCC5)cc4C(=O)N3C)O2)cc1`, the active concentration was > 10 µM (inactive).
For `O=C(C[C@@H]1CC[C@@H]2[C@H](COC[C@H](O)CN2C(=O)Nc2ccc(Cl)cc2)O1)NCC1CC1`, the active concentration was > 10 µM (inactive).
For `COCCNC(=O)[C@@H]1[C@@H](CO)[C@@H]2Cn3c(cccc3=O)[C@H]1N2S(=O)(=O)c1ccccc1C`, the active concentration was > 10 µM (inactive).
In the case of `CCCC#Cc1ccc([C@H]2[C@@H](CO)N3C(=O)CN(S(=O)(=O)c4ccccc4C)C[C@H]23)cc1`, the active concentration is reported as > 10 µM (inactive).
In the case of `O=C(CN1CCOCC1)N1CCCCN2[C@H](CO)[C@@H](c3ccc(Br)cc3)[C@@H]2C1`, the active concentration is reported as > 10 µM (inactive).
For `O=C(C[C@@H]1CC[C@H]2[C@@H](COC[C@H](O)CN2Cc2ccc(Cl)cc2)O1)NCc1ccccc1Cl`, the active concentration was > 10 µM (inactive).
With `CN1c2ccc(-c3cccc(F)c3)cc2[C@@H]2[C@@H](CCN2C(=O)c2ccccc2F)[C@H]1CO` the active concentration was > 10 µM (inactive).
In the case of `COc1ccc2c3c(n(C)c2c1)[C@@H](CO)N(C(=O)C1CC1)CC31CN(Cc2ccccc2OC)C1`, the active concentration is reported as > 10 µM (inactive).
`COC(=O)[C@H]1[C@H](CO)[C@H]2Cn3c(ccc(-c4ccccc4F)c3=O)[C@@H]1N2` was tested, and the active concentration was > 10 µM (inactive).
With `O=C(c1cnccn1)N1CC[C@@H]2[C@H]1c1cc(-c3ccccc3F)ccc1N[C@@H]2CO` the active concentration was > 10 µM (inactive).
For `Cc1ccccc1-c1ccc([C@H]2[C@H](CO)N3C(=O)CN(S(C)(=O)=O)C[C@@H]23)cc1`, the active concentration was > 10 µM (inactive).
`O=C(NCC(F)(F)F)[C@@H]1[C@@H](CO)[C@@H]2Cn3c(cccc3=O)[C@H]1N2CC1CCOCC1` was tested, and the active concentration was > 10 µM (inactive).
`O=C(c1cccc(F)c1)N1CCCCN2[C@@H](CO)[C@@H](c3ccc(C#CC4(O)CCCC4)cc3)[C@@H]2C1` was tested, and the active concentration was > 10 µM (inactive).
In the case of `O=C(C[C@@H]1CC[C@H]2[C@@H](COC[C@H](O)CN2S(=O)(=O)c2cccc(F)c2)O1)Nc1ccc(-c2ccccc2)cc1`, the active concentration is reported as > 10 µM (inactive).
For `Cc1ccccc1-c1ccccc1[C@@H]1[C@H](C#N)N(C(=O)c2ccccc2)[C@H]1CO`, the active concentration was > 10 µM (inactive).
`CC(C)NC(=O)N1C[C@@H]2[C@H](c3ccccc31)[C@@H](CO)N2Cc1ccccn1` gave an active concentration of less than 10 µM.
In the case of `Cn1cnc(CCNC(=O)C[C@@H]2CC[C@H]3[C@@H](COC[C@@H](O)CN3C(=O)C3CC3)O2)c1`, the active concentration is reported as > 10 µM (inactive).
For `COCC(=O)N1[C@@H]2CNc3ccccc3[C@@H]2[C@@H]1CO`, the active concentration was > 10 µM (inactive).
`CC(C)NC(=O)N1CC[C@@H]2[C@H]1c1cc(Br)ccc1N(C)[C@@H]2CO` was tested, and the active concentration was > 10 µM (inactive).
With `O=C(C1CCOCC1)N1C[C@H]2[C@@H](c3ccccc31)[C@H](CO)N2C(=O)Cc1ccccc1` the active concentration was > 10 µM (inactive).
In the case of `CCCNC(=O)N1[C@H](CO)[C@H](c2ccccc2-c2cccc(OC)c2)[C@@H]1C#N`, the active concentration is reported as > 10 µM (inactive).
`OC[C@@H]1[C@@H](c2ccc(C#CC3(O)CCCC3)cc2)[C@@H]2CN(Cc3cncnc3)CCCCN12` was tested, and the active concentration was > 10 µM (inactive).
In the case of `COc1cccc(-c2ccc3c(c2)[C@H]2[C@H](CCN2S(=O)(=O)c2cn(C)cn2)[C@H](CO)N3)c1`, the active concentration is reported as > 10 µM (inactive).
